# Data published in patent US10945989B2, “Perinatal treatment with a flavonoid agonist of the TrkB receptor for BDNF rescues neurogenesis and behavior in the Ts65Dn mouse model of DS” (ALMA MATER STUDIORUM—Universita' di Bologna, priority 2017, dated 2021).
# Experiments:
# [1] = Mortality before weaning, neonatal treatment
# Source text: Treatment with either 7,8-DHFor vehicle began on postnatal day 3(P3). All mice that survived in the P0 to P3 period entered this study, with no specific selection criteria. Total of 185 mice entered the study (96 males and 89 females). The number of vehicle-treated and 7,8-DHF treated mice was 96 and 89, respectively.
# The Ts65Dn strain is characterized by a high mortality rate during gestation (Roper et al., 2006). […] In the current study, treatment with either 7,8-DHF or vehicle began on postnatal day 3 (P3). All mice that survived in the P0 to P3 period entered this study, with no specific selection criteria.
# [2] = dose of 5.0 mg/kg, Liu et al., 2010; cited from earlier work
# [3] = tested on: dendritic spines of granule neurons; assay: Golgi staining: dendritic spine density of granule cells; type: in vivo, mouse; conditions: 5.0 mg/kg P3-P15
# Protocol: Euploid and Ts65Dn mice received a daily subcutaneous injection (at 9-10 am) of 7,8-DHF (5.0 mg/kg in vehicle: PBS with 1% DMSO) or vehicle from postnatal day 3 (P3) to postnatal day 15. This timing was chosen because it corresponds to that previously used to test the effects of fluoxetine and other pharmacotherapies in the neonate Ts65Dn mouse (Bianchi et al., 2010b; Giacomini et al., 2015; Stagni et al., 2016). Mice that received 7,8-DHF will be called “treated mice” (treated euploid mice: n=25; treated Ts65Dn mice: n=15). Mice that received the vehicle will be called “untreated mice” (untreated euploid mice: n=35; untreated Ts65Dn mice: n=21). […] The brains were excised and cut along the midline. […]
# In Golgi-stained sections from the DG of P15 mice, spines of granule cells were counted using a 100× oil immersion objective lens (1.4 NA). […] For each neuron, 2-3 segments were analyzed in the outer and inner half of the molecular layer, respectively. For each animal, spines were counted in at least 8 neurons. The length of each sampled dendritic segment was determined by tracing its profile and the number of spines was counted manually. The linear spine density was calculated by dividing the total number of spines by the length of the dendritic segment. Spine density was expressed as number of spines per 100 μm dendrite.
# [4] = Prenatal treatment: abortion rate, pups per litter, mortality of progeny
# Protocol: Ts65Dn females (n=4) were bred C57BL/6JEi×C3SnHeSnJ (B6EiC3) F1 males (n=4). Conception was determined by examining the vaginal plug. Pregnant females received a daily subcutaneous injection of either 7,8-DHF (Sigma-Aldrich) in PBS with 2% DMSO (dose: 5 mg/kg) or vehicle from the embryonic (E) day 10 (E10) to the day of delivery (E20/21). […] On postnatal day 2 (P2) the progeny of 7,8-DHF-treated and vehicle-treated females received an intraperitoneal injection (150 μg/g body weight) of BrdU (Sigma) in 0.9% NaCl solution and were killed after 2 h (on P2; 4-8 animals for each group). Vehicle-treated females and their progeny will be called hereafter untreated mice. The body weight of P2 mice was recorded prior to sacrifice. After sacrifice, brain was excised and weighed.
# The Ts65Dn strain is characterized by a high mortality rate during gestation (Roper et al., 2006).
# [5] = tested on: granule cells of the dentate gyrus; assay: Stereology of the DG: total number of granule cells; type: in vivo, mouse; conditions: 5.0 mg/kg P3-P15
# Protocol: Euploid and Ts65Dn mice received a daily subcutaneous injection (at 9-10 am) of 7,8-DHF (5.0 mg/kg in vehicle: PBS with 1% DMSO) or vehicle from postnatal day 3 (P3) to postnatal day 15. This timing was chosen because it corresponds to that previously used to test the effects of fluoxetine and other pharmacotherapies in the neonate Ts65Dn mouse (Bianchi et al., 2010b; Giacomini et al., 2015; Stagni et al., 2016). Mice that received 7,8-DHF will be called “treated mice” (treated euploid mice: n=25; treated Ts65Dn mice: n=15). Mice that received the vehicle will be called “untreated mice” (untreated euploid mice: n=35; untreated Ts65Dn mice: n=21). […]
# Unbiased stereology was performed on Hoechst-stained sections from P15 mice. […] Granule cell nuclei were counted with a ×64 oil objective (1.4 NA). Granule cell nuclei intersecting the uppermost focal plane and intersecting the exclusion lines of the count frame were not counted. […]
# where Q is the number of particles counted in the disectors, dis is the number of disectors and Vdis is the volume of the disector. For calculation of Vdis the disector height was corrected for section shrinkage in the z-plane (Dorph Petersen et al., 2001) according to the formula: h=counting thickness×(original thickness/measured thickness). The section thickness was measured during neuron counting at different random locations. […]
# [6] = tested on: TrkB receptor (TrkB-FL, p-TrkB-FL, TrkB-T1); assay: Western blot of hippocampal homogenates: TrkB receptors; type: in vivo, mouse
# Protocol: Euploid and Ts65Dn mice received a daily subcutaneous injection (at 9-10 am) of 7,8-DHF (5.0 mg/kg in vehicle: PBS with 1% DMSO) or vehicle from postnatal day 3 (P3) to postnatal day 15. This timing was chosen because it corresponds to that previously used to test the effects of fluoxetine and other pharmacotherapies in the neonate Ts65Dn mouse (Bianchi et al., 2010b; Giacomini et al., 2015; Stagni et al., 2016). Mice that received 7,8-DHF will be called “treated mice” (treated euploid mice: n=25; treated Ts65Dn mice: n=15). Mice that received the vehicle will be called “untreated mice” (untreated euploid mice: n=35; untreated Ts65Dn mice: n=21). […] The brains were excised and cut along the midline. The left hemisphere of a group of mice was fixed by immersion in PFA 4% and frozen, and the left hemisphere of another group of mice was used for Golgi staining. The right hemispheres of all mice was kept at −80° C. and used for western blotting.
# In homogenates of the hippocampal formation of P15 mice, total proteins were obtained as previously described (Trazzi et al., 2011) and the levels of the following proteins were evaluated: BDNF, TrkB full length (TrkB-FL), phosphorylated TrkB (p-TrkB), the truncated form 1 of the TrkB receptor (TrkB-T1), phosphorylated ERK1 (p-ERK1), phosphorylated ERK2 (p-ERK2), ERK1, ERK2, synaptophysin (SYN), GAPDH and α-Tubulin using the antibodies reported in Table 1. Densitometric analysis of digitized images with ChemiDoc XRS+ was performed with Image Lab software (Bio-Rad Laboratories, Hercules, Calif., USA) and intensity for each band was normalized to the intensity of the corresponding GAPDH or α-Tubulin band.
smiles,measurement,setting,value
"O=c1cc(-c2ccccc2)oc2c(O)c(O)ccc12 [7,8-DHF, 7,8-dihydroxyflavone]",adverse effects on the health of mice,"[1]; mouse, in vivo",no adverse effects on the health of mice
same,mice that died before weaning,"[1]; treatment from P3, deaths in the P6-P22 period, vehicle 7.3%",5.6%
same,toxic effects,[2],no toxic effects
same,spine density of granule neurons,[3]; P15 Ts65Dn mice,became similar to that of euploid mice
same,spine density of granule neurons,[3]; P15 euploid mice,no effect on spine density
same,mean number of pups per litter,"[4]; female, Ts65Dn, mouse, in vivo",5.33±2.04
same,spontaneous abortion,"[4]; mouse, in vivo",none of untreated and treated females underwent spontaneous abortion
same,mortality rate of the progeny,"[4]; treated females, mean±ES, vehicle 0.00±0.00, p=0.219",0.66±0.81
same,total number of granule cells,[5]; P15 Ts65Dn mice,became similar to that of untreated euploid mice
same,total number of granule cells,[5]; P15 euploid mice,no effect on total number of granule cells
same,levels of p-TrkB-FL,"[6]; P15, both genotypes (euploid and Ts65Dn)",increase in the levels of p-TrkB-FL
same,levels of TrkB-FL,[6]; P15 Ts65Dn mice,reduction in the levels of TrkB-FL
same,levels of TrkB-T1,"[6]; P15 Ts65Dn mice, vs untreated counterparts and untreated euploid mice",reduction in the levels of TrkB-T1
